These results are taken from patent publication US8143238B2, “Methods of increasing epidermal skin thickness by topical administration of a 19-nor containing vitamin D compound” (Wisconsin Alumni Research Foundation, priority 2008, dated 2012).

One assay has as its system keratinocytes in culture. The note with it: cited from earlier work.
A further assay relates to Rhino mice. Kind of assay: Epidermal thickness of Rhino mice after 3 weeks of daily topical administration (histological analysis). The note with it: for API-Treated Epidermal Thickness (% Vehicle): 70% ethanol/30% propylene glycol, mean ± SEM. The format is in vivo, mouse. How it is done:
Methods. Animals and dose administration. Rhino mice 6-8 weeks old were dosed daily via the topical route. The mice were weighed three times per week. Doses of API were adjusted weekly based on body weight. The topical formulations dosage forms were made by mixing the API with two different topical carriers. One topical carrier consisted of 70 vol % propylene glycol and 30 vol % ethanol. The other topical carrier consisted of 30 vol % propylene glycol and 70 vol % ethanol. The topical vehicle control for a given comparative example was the vehicle carrier used in the API-formulated topical dosage form. Animals were euthanized 72 hours after administration of the final topical dose, and dorsal skin was collected for histological analysis.
Measurement of epidermal thickness.
Epidermal thickness was determined by histological analysis of tissue sections. Skin was fixed overnight in 4% paraformaldehyde at 4° C. with gentle agitation. The skin was dehydrated the following day in 100% methanol. Samples were embedded in paraffin. Nine sections, each measuring 10 μm and each separated by 150 μm, were taken from each mouse and stained with hematoxylin and eosin stain. Five of the nine sections were digitally imaged (6× magnification) for analysis of the epidermal thickness using Metamorph Imaging Software (single line function).
The thickness of the epidermis adjacent to each comedone (open or healed) on each respective image of the five sections was also then measured using a Wacom Intuos 3 Graphics Tablet interfaced with the software. The average width was determined for each Rhino mouse from multiple measurements. Individual epidermal thickness average was determined from a composite of measurements taken from all 5 images. Such average for each mouse was used to calculate the treatment group mean. Results in the figures are expressed in terms of mean±standard error of the mean.
Preparation of topical formulations and dosage forms containing the various API's including 2MBis P, CAGE-3, 24R-2MD2, VitIII (17-20E), NEL, VD-03, 2MPregna, 2MP, 20R-2MBisP, 2MTrisP, FF-44, FF-55, HPBS and 13Me2. Separate concentrated ethanolic stock solutions of each API were diluted to a predetermined dose concentration using a topical carrier vehicle. Two different carrier vehicles were used. One topical carrier consisted of 70 vol % propylene glycol and 30 vol % ethanol. The other topical carrier consisted of 30 vol % propylene glycol and 70 vol % ethanol. The vehicle was thoroughly mixed with the API. The topical dosing formulation and dosage form delivered a predetermined amount of API on a per kilogram body weight basis.
A 100 μL dose was administered to the back of the mouse. An average weight of 24-30 g/mouse was assumed initially in the dose volume calculations. Dosing volumes were adjusted weekly to deliver the predetermined desired dose amount of API based on the body weight of each animal.

Another assay has as its system hairless C3H mouse. The note with it: topical administration to skin of hairless C3H mouse; cited from earlier work.
Setting [1] is: 217 nmole/kgBW/day topical, 3 weeks, 70 vol. % ethanol/30 vol. % propylene glycol.
The mark [2] stands for this setting: 694 nmole/kgBW/day topical, 3 weeks, 70 vol. % ethanol/30 vol. % propylene glycol.
The mark [3] stands for this setting: topical API dose 217 nmol/kg daily, 3 weeks.
Setting [4] is: topical API dose 694 nmol/kg daily, 3 weeks.

Structures are written as SMILES.

For the compound `C=C1/C(=C\C=C2/CCC[C@]3(C)[C@@H]([C@H](C)CCCC(C)(C)O)CC[C@@H]23)C[C@@H](O)C[C@@H]1O` [1,25(OH)2D3, 1α,25-dihydroxy-vitamin D3], the proliferation of keratinocytes entry in the assay with keratinocytes in culture is “inhibit the proliferation”. Moreover, the “epidermal thickness as compared to the vehicle-only control (in words)” value with Rhino mice (6 nmole/kgBW daily topical, 3 weeks, 70 vol. % ethanol/30 vol. % propylene glycol) is on record as “very modest increase in epidermal thickness”. Moreover, in the assay on Rhino mice (topical API dose 6.0 nmol/kg daily, 3 weeks), the “API-Treated Epidermal Thickness (% Vehicle)” value is 118 ± 7 % Vehicle. Also, in the assay on hairless C3H mouse, the epidermal proliferation result was “induce epidermal proliferation” and the epidermal thickness entry is reported as “increase epidermal thickness”.

On to `C=C1[C@H](O)CC(=C/C=C2\CCC[C@]3(C)[C@@H]([C@@H](C)CC)CC[C@@H]23)C[C@H]1O` [2MBisP, 2-methylene-19-nor-20(S)-1α-hydroxy-bishomopregnacalciferol], for which the “epidermal thickness as compared to the vehicle control (in words)” value with Rhino mice (setting [1]) and in the assay with Rhino mice (setting [2]) was “significant increase in epidermal thickness” in each case. The “potency at increasing epidermal thickness relative to 20R-2MBisP” value with Rhino mice (doses of 217 and 694 nmole/kgBW/day topical, 3 weeks) is on record as “approximately one-half log more potent”. The figures for the “API-Treated Epidermal Thickness (% Vehicle)” value with Rhino mice (setting [3]) and with Rhino mice (setting [4]) were 220 ± 8 % Vehicle and 231 ± 6 % Vehicle, respectively.

As for `C=C1C(O)CC(=CC=C2CCCC3(C)C2CCC3C(C)C)CC1O` (stereo not drawn) [2MP, 1α-hydroxy-2-methylene-19-nor-homopregnacalciferol], the “epidermal thickness as compared to the vehicle control (in words)” value with Rhino mice (setting [1]) is given as “significant increase in epidermal thickness”. In addition, the “API-Treated Epidermal Thickness (% Vehicle)” value in the assay with Rhino mice (setting [3]) is given as 207 ± 8 % Vehicle.

On to `C=C1[C@H](O)CC(=C/C=C2\CCC[C@]3(C)C(CC)CCC23)C[C@H]1O` (stereo partly drawn) [2MPregna, 2-methylene-19-nor-1α-hydroxy-pregnacalciferol], for which, in the assay with Rhino mice (setting [1]), the “epidermal thickness as compared to the vehicle control (in words)” value is recorded as “significant increase in epidermal thickness”. Moreover, in the assay on Rhino mice (setting [3]), the “API-Treated Epidermal Thickness (% Vehicle)” value is listed as 183 ± 8 % Vehicle.

Take `C=C1[C@H](O)CC(=C/C=C2\CCC[C@]3(C)[C@@H]([C@@H](C)CCC)CC[C@@H]23)C[C@H]1O` [2MTrisP, 2-methylene-(20S)-19-nor-1α-hydroxy-trishomopregnacalciferol]: the “epidermal thickness as compared to the vehicle control (in words)” value in the assay with Rhino mice (setting [1]) is given as “significant increase in epidermal thickness”. Besides, the “API-Treated Epidermal Thickness (% Vehicle)” value in the assay on Rhino mice (setting [3]) is reported as 221 ± 15 % Vehicle.

In the case of `C=C1[C@H](O)CC(=C/C=C/CC(C)(C)C[C@@H](C)CCCC(C)(C)O)C[C@H]1O` [13Me2, 13,13-dimethyl-des-C,D analog of (20S)-2-methylene-1α,25-dihydroxy-19-nor-vitamin D3], the “epidermal thickness as compared to the vehicle control (in words)” value in the assay on Rhino mice (setting [1]) is on record as “significant increase in epidermal thickness”. The “API-Treated Epidermal Thickness (% Vehicle)” value with Rhino mice (setting [3]) worked out at 229 ± 12 % Vehicle.

`C=C1[C@H](O)CC(=C/C=C2\CCC[C@]3(C)[C@@H]([C@H](C)CC)CC[C@@H]23)C[C@H]1O` [20R-2MBisP, (20R)-1α-hydroxy-2-methylene-19-nor-bishomopregnacalciferol]: the entries for the “epidermal thickness as compared to the vehicle control (in words)” value in the assay with Rhino mice (setting [1]) and in the assay with Rhino mice (setting [2]) were “some increase in epidermal thickness” and “significant increase in epidermal thickness”, respectively. In addition, the figures for the “API-Treated Epidermal Thickness (% Vehicle)” value in the assay on Rhino mice (setting [3]) and in the assay with Rhino mice (setting [4]) were 155 ± 7 % Vehicle and 209 ± 13 % Vehicle, respectively.

As for `C=C1[C@H](O)CC(=C/C=C2\CCC[C@]3(C)C([C@H](C)/C=C/[C@@H](C)C(C)(C)O)CC[C@@H]23)C[C@H]1O` (stereo partly drawn) [(24R)2MD2, 2-methylene-19-nor-(24R)-1α,25-dihydroxyvitamin D2], in the assay on Rhino mice (2.33 nmole/kgBW/day topical, 3 weeks, 70 vol. % ethanol/30 vol. % propylene glycol), the “epidermal thickness as compared to the vehicle control (in words)” value is “significant increase in epidermal thickness”. The “API-Treated Epidermal Thickness (% Vehicle)” value with Rhino mice (topical API dose 2.3 nmol/kg daily, 3 weeks) is reported as 189 ± 13 % Vehicle.

Take `C=C1[C@H](O)CC(=C/C=C2\CCC[C@]3(C)[C@@H]([C@@H](C)CCCC4(O)CCCC4)CC[C@@H]23)C[C@H]1O` [CAGE-3, 19-nor-26,27-dimethylene-20(S)-2-methylene-1α,25-dihydroxyvitamin D3]: the “epidermal thickness as compared to the vehicle control (in words)” value in the assay on Rhino mice (0.9 ng/day (ca. 100 picomole/kgBW/day), 0.45 ng/day from day 10, 0.22 ng/day (25 picomole/kgBW/day) from day 19, vehicle 30 vol. % ethanol/70 vol. % propylene glycol) is recorded as “increase in epidermal thickness”. Besides, in the assay with Rhino mice (lowest dose 0.0079 nmol/kgBW daily topical, 3 weeks, 70 vol. % ethanol/30 vol. % propylene glycol), the “epidermal thickness compared to the vehicle control (in words)” value is recorded as “some increase in epidermal thickness”. Further, the “epidermal thickness as compared to the control vehicle (in words)” value with Rhino mice (three higher doses 0.025, 0.079 and 0.25 nmol/kgBW daily topical, 3 weeks, 70 vol. % ethanol/30 vol. % propylene glycol) is listed as “significant increase in epidermal thickness”. The “API-Treated Epidermal Thickness (% Vehicle)” value with Rhino mice (topical API dose 0.025 nmol/kg daily, 3 weeks) was determined as 162 ± 11 % Vehicle; with Rhino mice (topical API dose 0.079 nmol/kg daily, 3 weeks), 274 ± 14 % Vehicle; in the assay on Rhino mice (topical API dose 0.25 nmol/kg daily, 3 weeks) it was 293 ± 8 % Vehicle.

In the case of `C=C1[C@H](O)CC(=C/C=C2\CCC[C@@]3(C)C2CCC3[C@H](C)CC(F)F)C[C@H]1O` (stereo partly drawn) [FF-44, 2-methylene-(20R)-23,23-difluoro-1α-hydroxy-19-nor-bishomopregnacalciferol], the “epidermal thickness as compared to the vehicle control (in words)” value in the assay on Rhino mice (setting [1]) is “significant increase in epidermal thickness”. In addition, the “API-Treated Epidermal Thickness (% Vehicle)” value with Rhino mice (setting [3]) turned out to be 206 ± 22 % Vehicle.

Consider `C=C1[C@H](O)CC(=C/C=C2\CCC[C@@]3(C)C2CCC3[C@@H](C)CC(F)F)C[C@H]1O` (stereo partly drawn) [FF-55, 2-methylene-(20S)-23,23-difluoro-1α-hydroxy-19-nor-bishomopregnancalciferol], for which the “epidermal thickness as compared to the vehicle control (in words)” value in the assay with Rhino mice (setting [1]) is listed as “significant increase in epidermal thickness”. Besides, the “API-Treated Epidermal Thickness (% Vehicle)” value with Rhino mice (setting [3]) was determined as 225 ± 9 % Vehicle.

In the case of `CC(C)C[C@H](C)[C@H]1CC[C@H]2/C(=C/C=C3C[C@@H](O)C(=CCCO)[C@H](O)C3)CCC[C@]12C` [HPBS, 2-(3′hydroxypropyl-1′,2′-idene)-19,23,24-trinor-(20S)-1α-hydroxyvitamin D3], the “epidermal thickness as compared to the control vehicle (in words)” value in the assay with Rhino mice (217 nmole/kgBW/day for 3 days (2 mice) or 10 days (4 mice), then 122 nmole/kgBW/day, 3 weeks daily topical, 70 vol. % ethanol/30 vol. % propylene glycol) is recorded as “significant increase in epidermal thickness”. The “API-Treated Epidermal Thickness (% Vehicle)” value in the assay on Rhino mice (topical API dose 217 to 122 nmol/kg daily (dose changed on day 10), 3 weeks) was found to be 189 ± 13 % Vehicle.

Regarding `C=C1[C@H](O)CC(=C/C=C2\CCC[C@]3(C)[C@@H]([C@H](C)CCC[C@H](C)O)CC[C@@H]23)C[C@H]1O` [NEL, 2-methylene-(20R,25S)-19,26-dinor-1α,25-dihydroxyvitamin D3], the “epidermal thickness, dose dependence (in words)” value with Rhino mice (7.5 and 25 nmole/kgBW/day topical, 3 weeks, 70 vol. % ethanol/30 vol. % propylene glycol) is “dose-dependent increase in epidermal thickness”. Also, the “API-Treated Epidermal Thickness (% Vehicle)” value turned out to be 145 ± 4 % Vehicle with Rhino mice (topical API dose 7.5 nmol/kg daily, 3 weeks) and 189 ± 11 % Vehicle in the assay with Rhino mice (topical API dose 25 nmol/kg daily, 3 weeks).

With `C=C1[C@H](O)CC(=C/C=C2\CCC[C@@H]3[C@@H]([C@@H](C)CCCC(C)(C)O)CC[C@@H]23)C[C@H]1O` [VD-03, 2-methylene-18,19-dinor-(20S)-1α,25-dihydroxyvitamin D3], the “API-Treated Epidermal Thickness (% Vehicle)” value in the assay on Rhino mice (topical API dose 0.62 nmol/kg daily, 3 weeks) was 225 ± 6 % Vehicle.

For the compound `C=C1[C@H](O)CC(=C/C=C2\CCC[C@]3(C)/C(=C(\C)CCCC(C)(C)O)CC[C@@H]23)C[C@H]1O` [Vit-III 17-20E, 2-methylene-1α,25-dihydroxy-(17E)-17(20)-dehydro-19-nor-vitamin D3], in the assay with Rhino mice (24.1 nmole/kgBW/day topical, 3 weeks, 70 vol. % ethanol/30 vol. % propylene glycol), the “epidermal thickness as compared to the vehicle control (in words)” value is on record as “significant increase in epidermal thickness”. For the same compound, in the assay with Rhino mice (topical API dose 24 nmol/kg daily, 3 weeks), the “API-Treated Epidermal Thickness (% Vehicle)” value was found to be 216 ± 13 % Vehicle.
